Experimental data taken from patent US9113629B2, “4-amino-6-(4-substituted-phenyl)-picolinates and 6-amino-2-(4-substituted-phenyl)-pyrimidine-4-carboxylates and their use as herbicides” (DOW AGROSCIENCES LLC, priority 2013, dated 2015).

System: Key Broadleaf Weed and Crop Species
Experiment: Post-emergent Test II herbicidal activity (Table 5)
Assay type: in vivo
Settings: post-emergence, 336 h; ABUTH: velvetleaf (Abutilon theophrasti); application rate 70 g ai/ha; 14 days after application; read-out: Visual Growth Reduction (%) 14 Days After Application, ABUTH
Summary of the method: (§1)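 Post-emergence foliar spray, 187 L/ha, track sprayer at 43 cm above canopy. Carrier: acetone/water/IPA/DMSO/Atplus 411F/Triton X-155. Plants at 1st–2nd true leaf; subirrigated afterwards; % injury scored visually at 14 d.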

SMILES	pest or weed control at 70 g/ha
COc1c(N)nc(-c2ccc(I)cc2F)nc1C(=O)O [Compound 72]	85 to 94%

Same assay, conditions: post-emergence, 336 h; ABUTH: velvetleaf (Abutilon theophrasti); application rate 140 g ai/ha; 14 days after application; read-out: Visual Growth Reduction (%) 14 Days After Application, ABUTH

SMILES	pest or weed control at 140 g/ha
COc1c(N)nc(-c2ccc(I)cc2F)nc1C(=O)O [Compound 72]	85 to 94%

Same assay, conditions: post-emergence, 336 h; AMARE: redroot pigweed (Amaranthus retroflexus); application rate 70 g ai/ha; 14 days after application; read-out: Visual Growth Reduction (%) 14 Days After Application, AMARE

SMILES	pest or weed control at 70 g/ha
COc1c(N)nc(-c2ccc(I)cc2F)nc1C(=O)O [Compound 72]	95 to 100%

Same assay, conditions: post-emergence, 336 h; AMARE: redroot pigweed (Amaranthus retroflexus); application rate 140 g ai/ha; 14 days after application; read-out: Visual Growth Reduction (%) 14 Days After Application, AMARE

SMILES	pest or weed control at 140 g/ha
COc1c(N)nc(-c2ccc(I)cc2F)nc1C(=O)O [Compound 72]	95 to 100%

Same assay, conditions: post-emergence, 336 h; BRSNN: oilseed-rape, canola (Brassica napus); application rate 70 g ai/ha; 14 days after application; read-out: Visual Growth Reduction (%) 14 Days After Application, BRSNN

SMILES	pest or weed control at 70 g/ha
COc1c(N)nc(-c2ccc(I)cc2F)nc1C(=O)O [Compound 72]	85 to 94%

Same assay, conditions: post-emergence, 336 h; BRSNN: oilseed-rape, canola (Brassica napus); application rate 140 g ai/ha; 14 days after application; read-out: Visual Growth Reduction (%) 14 Days After Application, BRSNN

SMILES	pest or weed control at 140 g/ha
COc1c(N)nc(-c2ccc(I)cc2F)nc1C(=O)O [Compound 72]	85 to 94%

Same assay, conditions: post-emergence, 336 h; CHEAL: lambsquarters (Chenopodium album); application rate 70 g ai/ha; 14 days after application; read-out: Visual Growth Reduction (%) 14 Days After Application, CHEAL

SMILES	pest or weed control at 70 g/ha
COc1c(N)nc(-c2ccc(I)cc2F)nc1C(=O)O [Compound 72]	95 to 100%

Same assay, conditions: post-emergence, 336 h; CHEAL: lambsquarters (Chenopodium album); application rate 140 g ai/ha; 14 days after application; read-out: Visual Growth Reduction (%) 14 Days After Application, CHEAL

SMILES	pest or weed control at 140 g/ha
COc1c(N)nc(-c2ccc(I)cc2F)nc1C(=O)O [Compound 72]	95 to 100%

Same assay, conditions: post-emergence, 336 h; EPHHL: wild poinsettia (Euphorbia heterophylla); application rate 70 g ai/ha; 14 days after application; read-out: Visual Growth Reduction (%) 14 Days After Application, EPHHL

SMILES	pest or weed control at 70 g/ha
COc1c(N)nc(-c2ccc(I)cc2F)nc1C(=O)O [Compound 72]	95 to 100%

Same assay, conditions: post-emergence, 336 h; EPHHL: wild poinsettia (Euphorbia heterophylla); application rate 140 g ai/ha; 14 days after application; read-out: Visual Growth Reduction (%) 14 Days After Application, EPHHL

SMILES	pest or weed control at 140 g/ha
COc1c(N)nc(-c2ccc(I)cc2F)nc1C(=O)O [Compound 72]	95 to 100%

Same assay, conditions: post-emergence, 336 h; HELAN: sunflower (Helianthus annuus); application rate 70 g ai/ha; 14 days after application; read-out: Visual Growth Reduction (%) 14 Days After Application, HELAN

SMILES	pest or weed control at 70 g/ha
COc1c(N)nc(-c2ccc(I)cc2F)nc1C(=O)O [Compound 72]	95 to 100%

Same assay, conditions: post-emergence, 336 h; HELAN: sunflower (Helianthus annuus); application rate 140 g ai/ha; 14 days after application; read-out: Visual Growth Reduction (%) 14 Days After Application, HELAN

SMILES	pest or weed control at 140 g/ha
COc1c(N)nc(-c2ccc(I)cc2F)nc1C(=O)O [Compound 72]	95 to 100%

Same assay, conditions: post-emergence, 336 h; VIOTR: wild pansy (Viola tricolor); application rate 70 g ai/ha; 14 days after application; read-out: Visual Growth Reduction (%) 14 Days After Application, VIOTR

SMILES	pest or weed control at 70 g/ha
COc1c(N)nc(-c2ccc(I)cc2F)nc1C(=O)O [Compound 72]	60 to 74%

Same assay, conditions: post-emergence, 336 h; VIOTR: wild pansy (Viola tricolor); application rate 140 g ai/ha; 14 days after application; read-out: Visual Growth Reduction (%) 14 Days After Application, VIOTR

SMILES	pest or weed control at 140 g/ha
COc1c(N)nc(-c2ccc(I)cc2F)nc1C(=O)O [Compound 72]	60 to 74%

System: Key Grass and Sedge Weeds as well as Grass Crops
Experiment: Post-emergent Test II herbicidal activity (Table 6)
Assay type: in vivo
Settings: post-emergence, 336 h, CYPES: yellow nutsedge (Cyperus esculentus), 70 g ai/ha, read-out: Visual Growth Reduction (%) 14 Days After Application, CYPES
Summary of the method: as §1

SMILES	pest or weed control at 70 g/ha
COc1c(N)nc(-c2ccc(I)cc2F)nc1C(=O)O [Compound 72]	0 to 29%

Same assay, conditions: post-emergence, 336 h, CYPES: yellow nutsedge (Cyperus esculentus), 140 g ai/ha, read-out: Visual Growth Reduction (%) 14 Days After Application, CYPES

SMILES	pest or weed control at 140 g/ha
COc1c(N)nc(-c2ccc(I)cc2F)nc1C(=O)O [Compound 72]	95 to 100%

Same assay, conditions: post-emergence, 336 h, DIGSA: crabgrass (Digitaria sanguinalis), 70 g ai/ha, read-out: Visual Growth Reduction (%) 14 Days After Application, DIGSA

SMILES	pest or weed control at 70 g/ha
COc1c(N)nc(-c2ccc(I)cc2F)nc1C(=O)O [Compound 72]	45 to 59%

Same assay, conditions: post-emergence, 336 h, DIGSA: crabgrass (Digitaria sanguinalis), 140 g ai/ha, read-out: Visual Growth Reduction (%) 14 Days After Application, DIGSA

SMILES	pest or weed control at 140 g/ha
COc1c(N)nc(-c2ccc(I)cc2F)nc1C(=O)O [Compound 72]	60 to 74%

Same assay, conditions: post-emergence, 336 h, ECHCG: barnyardgrass (Echinochloa crus-galli), 70 g ai/ha, read-out: Visual Growth Reduction (%) 14 Days After Application, ECHCG

SMILES	pest or weed control at 70 g/ha
COc1c(N)nc(-c2ccc(I)cc2F)nc1C(=O)O [Compound 72]	95 to 100%

Same assay, conditions: post-emergence, 336 h, ECHCG: barnyardgrass (Echinochloa crus-galli), 140 g ai/ha, read-out: Visual Growth Reduction (%) 14 Days After Application, ECHCG

SMILES	pest or weed control at 140 g/ha
COc1c(N)nc(-c2ccc(I)cc2F)nc1C(=O)O [Compound 72]	95 to 100%

Same assay, conditions: post-emergence, 336 h, ORYSA: rice (Oryza sativa), crop, 70 g ai/ha, read-out: Visual Growth Reduction (%) 14 Days After Application, ORYSA

SMILES	pest or weed control at 70 g/ha
COc1c(N)nc(-c2ccc(I)cc2F)nc1C(=O)O [Compound 72]	0 to 29%

Same assay, conditions: post-emergence, 336 h, ORYSA: rice (Oryza sativa), crop, 140 g ai/ha, read-out: Visual Growth Reduction (%) 14 Days After Application, ORYSA

SMILES	pest or weed control at 140 g/ha
COc1c(N)nc(-c2ccc(I)cc2F)nc1C(=O)O [Compound 72]	0 to 29%

Same assay, conditions: post-emergence, 336 h, SETFA: giant foxtail (Setaria faberi), 70 g ai/ha, read-out: Visual Growth Reduction (%) 14 Days After Application, SETFA

SMILES	pest or weed control at 70 g/ha
COc1c(N)nc(-c2ccc(I)cc2F)nc1C(=O)O [Compound 72]	45 to 59%

Same assay, conditions: post-emergence, 336 h, SETFA: giant foxtail (Setaria faberi), 140 g ai/ha, read-out: Visual Growth Reduction (%) 14 Days After Application, SETFA

SMILES	pest or weed control at 140 g/ha
COc1c(N)nc(-c2ccc(I)cc2F)nc1C(=O)O [Compound 72]	75 to 84%

Same assay, conditions: post-emergence, 336 h, SORVU: grain sorghum (Sorghum vulgare), 70 g ai/ha, read-out: Visual Growth Reduction (%) 14 Days After Application, SORVU

SMILES	pest or weed control at 70 g/ha
COc1c(N)nc(-c2ccc(I)cc2F)nc1C(=O)O [Compound 72]	85 to 94%

Same assay, conditions: post-emergence, 336 h, SORVU: grain sorghum (Sorghum vulgare), 140 g ai/ha, read-out: Visual Growth Reduction (%) 14 Days After Application, SORVU

SMILES	pest or weed control at 140 g/ha
COc1c(N)nc(-c2ccc(I)cc2F)nc1C(=O)O [Compound 72]	95 to 100%

Same assay, conditions: post-emergence, 336 h, TRZSS (wheat, Triticum aestivum), crop, 70 g ai/ha, read-out: Visual Growth Reduction (%) 14 Days After Application, TRZSS

SMILES	pest or weed control at 70 g/ha
COc1c(N)nc(-c2ccc(I)cc2F)nc1C(=O)O [Compound 72]	60 to 74%

Same assay, conditions: post-emergence, 336 h, TRZSS (wheat, Triticum aestivum), crop, 140 g ai/ha, read-out: Visual Growth Reduction (%) 14 Days After Application, TRZSS

SMILES	pest or weed control at 140 g/ha
COc1c(N)nc(-c2ccc(I)cc2F)nc1C(=O)O [Compound 72]	60 to 74%

Same assay, conditions: post-emergence, 336 h, ZEAMX: maize, corn (Zea mays), crop, 70 g ai/ha, read-out: Visual Growth Reduction (%) 14 Days After Application, ZEAMX

SMILES	pest or weed control at 70 g/ha
COc1c(N)nc(-c2ccc(I)cc2F)nc1C(=O)O [Compound 72]	60 to 74%

Same assay, conditions: post-emergence, 336 h, ZEAMX: maize, corn (Zea mays), crop, 140 g ai/ha, read-out: Visual Growth Reduction (%) 14 Days After Application, ZEAMX

SMILES	pest or weed control at 140 g/ha
COc1c(N)nc(-c2ccc(I)cc2F)nc1C(=O)O [Compound 72]	60 to 74%

System: not given
Experiment: not given
Settings: not given

melting point	SMILES
95 to 98 °C	COc1c(N)nc(-c2ccc(I)cc2F)nc1C(=O)O [Compound 72]
